Reference: patent publication US8987500B2, “4-biphenyl-substituted pyrazolidin-3,5-dione derivatives” (Bayer CropScience AG, priority 2003, dated 2015)

system: greenhouse red spider mite (Tetranychus urticae); assay: Tetranychus test (OP-resistant/spray treatment), Example G; type: in vivo; settings: Tetranychus urticae (OP-resistant), bean leaf discs, spray treatment, 100 g/ha
Method: Tetranychus Test (OP-Resistant/Spray Treatment)
To produce a suitable preparation of active compound, 1 part by weight of active compound is mixed with the stated amounts of solvents and emulsifier, and the concentrate is diluted with emulsifier-containing water to the desired concentration.
Discs of bean leaves (Phaseolus vulgaris) which are infested by all stages of the greenhouse red spider mite (Tetranychus urticae) are sprayed with a preparation of active compound of the desired concentration.
After the desired period of time, the activity in % is determined 100% means that all spider mites have been killed; 0% means that none of the spider mites have been killed.

Row | Compound | Kill rate in % after 5d [%]
1 | Cc1ccc(-c2ccc(F)cc2)cc1-c1c(OC(=O)C(C)(C)C)n2n(c1=O)CCOCC2 [Ex. I-2-b-6] | 90
2 | CCOC(=O)Oc1c(-c2cc(-c3cccc([N+](=O)[O-])c3)ccc2C)c(=O)n2n1CCOCC2 [Ex. I-2-c-26] | 90

same assay, conditions: Tetranychus urticae (OP-resistant), bean leaf discs, spray treatment, 500 g/ha

Row | Compound | Kill rate in % after 5d [%]
3 | CCOC(=O)Oc1c(-c2cc(-c3cc(F)ccc3F)ccc2C)c(=O)n2n1CCCC2 [Ex. I-1-c-16] | 100
4 | CCOC(=O)Oc1c(-c2cc(-c3ccc(OC)cc3)ccc2C)c(=O)n2n1CCOCC2 [Ex. I-2-c-23] | 100
5 | Cc1ccc(-c2cccc(Cl)c2)cc1-c1c(O)n2n(c1=O)CCOCC2 [Example I-2-a-2] | 90
6 | CCOC(=O)Oc1c(-c2cc(-c3ccccc3C)ccc2C)c(=O)n2n1CCCC2 [Ex. I-1-c-7] | 100
7 | Cc1ccc(-c2cccc(Cl)c2Cl)cc1-c1c(OC(=O)C(C)(C)C)n2n(c1=O)CCOCC2 [Ex. I-2-b-10] | 100
8 | Cc1ccc(-c2cccc(Cl)c2Cl)cc1-c1c(OC(=O)C(C)(C)C)n2n(c1=O)CCCC2 [Ex. I-1-b-10] | 90
9 | Cc1cc(C)c(-c2c(OC(=O)C(C)(C)C)n3n(c2=O)CCCC3)c(C)c1-c1ccc(F)cc1 [Ex. I-1-b-34] | 90
10 | Cc1ccc(-c2ccc(Cl)cc2Cl)cc1-c1c(O)n2n(c1=O)CCCC2 [Example I-1-a-11] | 100
11 | CCOC(=O)Oc1c(-c2cc(-c3ccc(Cl)cc3Cl)ccc2C)c(=O)n2n1CCCC2 [Ex. I-1-c-11] | 100
12 | Cc1ccc(-c2cccc(Cl)c2Cl)cc1-c1c(O)n2n(c1=O)CCCC2 [Example I-1-a-10] | 90
13 | CCOC(=O)Oc1c(-c2cc(-c3cc(Cl)ccc3Cl)ccc2C)c(=O)n2n1CCCC2 [Ex. I-1-c-12] | 100
14 | Cc1ccc(-c2ccc(C)c(-c3c(OC(=O)C(C)(C)C)n4n(c3=O)CCCC4)c2)cc1 [Ex. I-1-b-9] | 100
15 | CCOC(=O)Oc1c(-c2cc(-c3cccc(Cl)c3Cl)ccc2C)c(=O)n2n1CCOCC2 [Ex. I-2-c-10] | 100
16 | Cc1ccc(-c2ccc(F)c(Cl)c2)cc1-c1c(O)n2n(c1=O)CCCC2 [Example I-1-a-17] | 90
17 | Cc1ccc(-c2ccc(Oc3ccccc3)cc2)cc1-c1c(OC(=O)C(C)(C)C)n2n(c1=O)CCCC2 [Ex. I-1-b-28] | 100

system: larvae of the mustard beetle (Phaedon cochleariae); assay: Phaedon test (spray treatment), Example E; type: in vivo; settings: Table E, 500 g/ha active compound
Method: (§1) Phaedon Test (Spray Treatment) [table] To produce a suitable preparation of active compound, 1 part by weight of active compound is mixed with the stated amounts of solvents and emulsifier, and the concentrate is diluted with emulsifier-containing water to the desired concentration. Discs of Chinese cabbage (Brassica pekinensis) are sprayed with a preparation of active compound of the desired concentration and, after they have dried, populated with larvae of the mustard beetle (Phaedon cochleariae). After the desired period of time, the activity in % is determined 100% means that all beetle larvae have been killed; 0% means that none of the beetle larvae have been killed.

Row | Compound | Kill rate in % after 7d [%]
18 | CCOC(=O)Oc1c(-c2cc(-c3ccc(F)cc3F)ccc2C)c(=O)n2n1CCOCC2 [Ex. I-2-c-15] | 100
19 | Cc1ccc(-c2ccc(Cl)c(Cl)c2)cc1-c1c(OC(=O)C(C)(C)C)n2n(c1=O)CCCC2 [Ex. I-1-b-13] | 100
20 | Cc1ccc(-c2ccc(Cl)c(Cl)c2)cc1-c1c(O)n2n(c1=O)CCCC2 [Example I-1-a-13] | 100
21 | CCOC(=O)Oc1c(-c2cc(-c3ccccc3F)ccc2C)c(=O)n2n1CCOCC2 [Ex. I-2-c-4] | 100
22 | Cc1ccc(-c2ccc(Cl)c(Cl)c2)cc1-c1c(O)n2n(c1=O)CCOCC2 [Example I-2-a-13] | 100
23 | Cc1cc(C)c(-c2c(OC(=O)C(C)(C)C)n3n(c2=O)CCOCC3)c(C)c1-c1ccc(F)cc1 [Ex. I-2-b-32] | 100
24 | CCOC(=O)Oc1c(-c2cc(-c3ccccc3C)ccc2C)c(=O)n2n1CCOCC2 [Ex. I-2-c-7] | 100
25 | Cc1ccc(-c2cccc(C(F)(F)F)c2)cc1-c1c(OC(=O)C(C)(C)C)n2n(c1=O)CCOCC2 [Ex. I-2-b-19] | 100
26 | Cc1ccc(-c2cccc([N+](=O)[O-])c2)cc1-c1c(O)n2n(c1=O)CCOCC2 [Example I-2-a-26] | 100
27 | CCOC(=O)Oc1c(-c2cc(-c3ccc(F)c(Cl)c3)ccc2C)c(=O)n2n1CCOCC2 [Ex. I-2-c-17] | 100
28 | CCOC(=O)Oc1c(-c2cc(-c3cc(Cl)cc(Cl)c3)ccc2C)c(=O)n2n1CCOCC2 [Ex. I-2-c-14] | 100
29 | Cc1ccc(-c2ccc(OC(F)(F)F)cc2)cc1-c1c(OC(=O)C(C)(C)C)n2n(c1=O)CCCC2 [Ex. I-1-b-27] | 100
30 | CCOC(=O)Oc1c(-c2cc(-c3ccc(C)cc3)ccc2C)c(=O)n2n1CCCC2 [Ex. I-1-c-9] | 100
31 | Cc1ccc(-c2ccc(F)c(Cl)c2)cc1-c1c(OC(=O)C(C)(C)C)n2n(c1=O)CCOCC2 [Ex. I-2-b-17] | 100
32 | CCOC(=O)Oc1c(-c2cc(-c3ccc(C)cc3)ccc2C)c(=O)n2n1CCOCC2 [Ex. I-2-c-9] | 100
33 | CCOC(=O)Oc1c(-c2cc(-c3cc(Cl)cc(Cl)c3)ccc2C)c(=O)n2n1CCCC2 [Ex. I-1-c-14] | 100
34 | CCOC(=O)Oc1c(-c2cc(-c3ccc(Cl)cc3Cl)ccc2C)c(=O)n2n1CCOCC2 [Ex. I-2-c-11] | 100
35 | CCOC(=O)Oc1c(-c2cc(-c3cccc(C(F)(F)F)c3)ccc2C)c(=O)n2n1CCOCC2 [Ex. I-2-c-19] | 100
36 | CCOC(=O)Oc1c(-c2cc(-c3cc(Cl)ccc3Cl)ccc2C)c(=O)n2n1CCOCC2 [Ex. I-2-c-12] | 100
37 | Cc1ccc(-c2cc(F)ccc2F)cc1-c1c(OC(=O)C(C)(C)C)n2n(c1=O)CCCC2 [Ex. I-1-b-16] | 100

system: caterpillars of the army worm (Spodoptera frugiperda); assay: Spodoptera frugiperda test (spray treatment), Example F; type: in vivo; settings: maize leaf discs, 100 g/ha
Method: as §1, with “Spodoptera frugiperda” for “Phaedon”, “maize leaves (Zea mays)” for “Chinese cabbage (Brassica pekinensis)”, “caterpillars” for “larvae”, “army worm (Spodoptera frugiperda).” for “mustard beetle (Phaedon cochleariae).”, “caterpillars” for “beetle larvae”

Row | Compound | Kill rate in % after 7d [%]
38 | Cc1ccc(-c2ccc(Cl)cc2)cc1-c1c(OC(=O)C(C)C)n2n(c1=O)CCCC2 [Ex. I-1-b-32] | 100

same assay, conditions: maize leaf discs, 500 g/ha

Row | Compound | Kill rate in % after 7d [%]
39 | Cc1ccc(-c2ccc(Cl)cc2)cc1-c1c(OC(=O)C(C)(C)C)n2n(c1=O)CCOCC2 [Ex. I-2-b-3] | 83
40 | CCOC(=O)Oc1c(-c2cc(-c3ccc(Cl)cc3)ccc2C)c(=O)n2n1CCOCC2 [Ex. I-2-c-3] | 100
41 | Cc1ccc(-c2cccc(F)c2)cc1-c1c(OC(=O)C(C)(C)C)n2n(c1=O)CCOCC2 [Ex. I-2-b-5] | 100
42 | Cc1ccc(-c2ccc(F)cc2F)cc1-c1c(OC(=O)C(C)(C)C)n2n(c1=O)CCCC2 [Ex. I-1-b-15] | 100
43 | Cc1ccc(-c2ccc(F)cc2)cc1-c1c(O)n2n(c1=O)CCOCC2 [Example I-2-a-6] | 100
44 | CCOC(=O)Oc1c(-c2cc(-c3cccc(C(F)(F)F)c3)ccc2C)c(=O)n2n1CCCC2 [Ex. I-1-c-18] | 100
45 | CCOC(=O)Oc1c(-c2cc(-c3ccc(Cl)c(Cl)c3)ccc2C)c(=O)n2n1CCCC2 [Ex. I-1-c-13] | 83
46 | CCOC(=O)Oc1c(-c2cc(-c3ccc(C(F)(F)F)cc3)ccc2C)c(=O)n2n1CCOCC2 [Ex. I-2-c-20] | 100
47 | CCOC(=O)Oc1c(-c2cc(-c3cccc(F)c3)ccc2C)c(=O)n2n1CCOCC2 [Ex. I-2-c-5] | 100
48 | Cc1ccc(-c2cccc(Cl)c2)cc1-c1c(OC(=O)C(C)(C)C)n2n(c1=O)CCOCC2 [Ex. I-2-b-2] | 100
49 | CCOC(=O)Oc1c(-c2cc(-c3cccc(Cl)c3)ccc2C)c(=O)n2n1CCOCC2 [Ex. I-2-c-2] | 83
50 | Cc1ccc(-c2ccc(C(F)(F)F)cc2)cc1-c1c(OC(=O)C(C)(C)C)n2n(c1=O)CCOCC2 [Ex. I-2-b-20] | 100
51 | CCOC(=O)Oc1c(-c2cc(-c3ccc(Cl)c(Cl)c3)ccc2C)c(=O)n2n1CCOCC2 [Ex. I-2-c-13] | 100
